Experimental data reported in patent US20260250247A1, “NOVEL INDOLINE DERIVATIVE AND USE THEREOF” (CK REGEON INC., priority 2023, published 2026).

What was measured:
3T3-L1 pre-adipocytes = experiment: Inhibition of adipocyte differentiation and lipid accumulation, Oil Red O; format: cell-based; settings: Mus musculus, 192 h; 3T3-L1, compound 1 μM, MDI-induced differentiation for 8 days, Oil Red O eluted, absorbance 544 nm; read-out: lipid accumulation rate
Method: 3T3-L1 cells were seeded in a 6-well plate at a density of […] cells per well. The cells were grown to 100% confluency in Dulbecco's modified Eagle's medium (DMEM) supplemented with 10% bovine calf serum (BCS; GIBCO). Two days after reaching 100% confluency, differentiation was induced with or without treatment with the indoline compound at a concentration of 1 μM in DMEM containing 10% fetal bovine serum (FBS; GIBCO) and MDI (520 μM methylisobutylxanthine (IBMX; Sigma-Aldrich), 1 μM dexamethasone (Sigma-Aldrich), and 5 μM insulin (GIBCO)). On day 3, the medium was replaced with DMEM containing 10% FBS and 5 μM insulin with or without the indoline compound, and then with a fresh identical medium every 2 days. After differentiation for 8 days, the culture medium was removed, and the cells were washed with PBS and then fixed with 10% formaldehyde for 1 hour. After removing the 10% formaldehyde, the cells were washed thoroughly with distilled water. After that, 60% isopropanol was added and immediately then removed. After washing with distilled water, lipid droplets were stained with an Oil Red O dye solution for 20 minutes and then washed with distilled water. The cells were counterstained with Mayer's hematoxylin. Oil Red O images were visualized using a bright-field microscope (Nikon TE-2000U). To quantify the accumulated lipids, Oil Red O was eluted by adding isopropanol, and absorbance was measured spectrophotometrically at 544 nm using a multi-plate reader.
As A3051 (KY19382) and A3334, self-developed and synthesized materials were used. As BIO, or GSK 3 Inhibitor IX, also known as 6-bromoindirubin-3′-oxime, HY-10580 was purchased commercially.
In FIG. 2, the undifferentiated group (Un Diff) refers to undifferentiated adipocytes, or preadipocytes that had not been induced to differentiate, and the differentiated group (Diff) refers to fully differentiated adipocytes.

[1] = test system: F4/80, CD11 b, α-SMA, collagen I, desmin in liver tissue; experiment: Liver immunohistochemistry of inflammatory (F4/80, CD11 b) and fibrosis markers (α-SMA, collagen I, desmin) in MASH mice; format: in vivo, C57BL/6N mice; settings: 25 mg/kg/day orally for 4 weeks; vs MASH group (vehicle)
Method: (§1) Five-week-old wild-type male C57BL/6N mice were purchased from Orient Bio Co., Ltd. They were allowed to acclimate to the laboratory environment for one week. Mice weighing 18-20 g on average were used in the experiment. To ensure ethical and scientific validity and efficient management of animal experiments, the experiment was conducted with the approval of the Institutional Review Board (IACUC-A-202205-1472-01) of Severance Hospital, Yonsei University College of Medicine.
The mice were divided into a normal group (NCD) and a high-fat diet group (HFD). The normal group (NCD) was fed a normal chow diet (NCD, Teklad Global 18% protein rodent diet), and the high-fat diet group (HFD) was fed a high-fat diet (HFD, D12492) in which fat accounted for 60% of the total calories, for 8 weeks. […]
(§2) The sections treated with the primary antibodies were washed with PBS and incubated with biotinylated anti-mouse (1:400; Dako) or anti-rabbit (1:400; Dako) secondary antibodies for 1 hour at room temperature. […] After the staining, images were taken and analyzed using a bright-field microscope (Nikon TE-2000U).
Through these experiments, the anti-inflammatory effect of the indoline derivatives of Examples 1 to 4 were analyzed in an animal model of nonalcoholic fatty liver disease. […]

[2] = test system: β-catenin and CXXC5 in liver tissue; experiment: Liver immunohistochemistry of β-catenin and CXXC5 in MASH mice; format: in vivo, C57BL/6N mice; settings: 25 mg/kg/day orally for 4 weeks
Method: as §1
The mice were divided into a normal group (NCD) and a high-fat diet group (HFD). The normal group (NCD) was fed a normal chow diet (NCD, Teklad Global 18% protein rodent diet), and the high-fat diet group (HFD) was fed a high-fat diet (HFD, D12492) in which fat accounted for 60% of the total calories, for 8 weeks.
Mice induced with metabolic dysfunction-associated steatohepatitis (MASH) (hereinafter, referred to as MASH or MASH group) were prepared by administering CCl4 intraperitoneally twice a week for 4 weeks after feeding the high-fat diet (HFD) for 8 weeks. […]
as §2

N#Cc1ccc2c(c1)/C(=C1/Nc3ccccc3C1=O)C(=O)N2 [5-cyanoindirubin]
activity at 1 µM (3T3-L1 pre-adipocytes): 79% | collagen production and α-SMA expression in liver (fibrosis markers) [1]: did not show any significant difference from the MASH group (vehicle) | expression of inflammatory markers F4/80 and CD11 b in liver [1]: no significant difference was observed from the MASH group (vehicle) | β-catenin expression in liver, immunohistochemical staining [2]: no significant difference from the MASH group (vehicle)
